# Test system: aerobic bacteria
# Assay: total bacterial count test on finished gloves (TSA plates)
# Details: FIG. 5, total bacteria count on prepared articles as a function of CHG concentration in the coagulant
# Description: In order to determine the effectiveness of the antimicrobial coagulant on a finished article, a total bacterial count test was completed on the article prepared using the above formulas. The following three concentrations were prepared: 0.8% Saline Solution (sodium Chloride), 4% TSA & 6.5% SDA solution, which were subsequently sterilized at 121° C. for 15 minutes. Three gloves made with each formula were cut into two pieces each and were soaked into 60 ml Saline solution and shaken for 10 minutes. After that, 1 ml of the solution and 1 ml of Agar solution (TSA and SDA) were pipetted out into a Petri dish. The Petri dish plates were incubated for 2 days at 30-35° C. for TSA & 4 days at 20-25° C. for SDA. The colonies on each plate was counted and total fungus/aerobic bacteria count per glove was calculated as: Total Aerobic Bacteria Count Per Glove=(Count of TSA plate*60)/3 Total Fungus Count Per Glove=(Count of SDA plate*60)/3 The results of total bacteria count on TSA for above four samples and control sample are listed below.
compound,measurement,value
"N=C(NCCCCCCNC(=N)NC(=N)Nc1ccc(Cl)cc1)NC(=N)Nc1ccc(Cl)cc1.O=C(O)[C@H](O)[C@@H](O)[C@H](O)[C@H](O)CO.O=C(O)[C@H](O)[C@@H](O)[C@H](O)[C@H](O)CO [CHG, chlorhexidine gluconate]",concentration of CHG up to which total bacteria count decreased (above it the count increased),approximately 0.02%
